These results are taken from patent US20010014694A1, “Substituted phenyl compounds and derivatives thereof that modulate the activity of endothelin” (priority 1996, published 2001).

Where two headings read alike, the source gives them in different places. A value given as a limit tells only on which side of the number the result lay.

Data set [1] has as its target T1, human ETB receptor (Homo sapiens, UniProt P24530).
T1 construct: expressed in transfected cells; host or cells: COS7 cells, membrane preparation
T1 sequence (P24530 27-442): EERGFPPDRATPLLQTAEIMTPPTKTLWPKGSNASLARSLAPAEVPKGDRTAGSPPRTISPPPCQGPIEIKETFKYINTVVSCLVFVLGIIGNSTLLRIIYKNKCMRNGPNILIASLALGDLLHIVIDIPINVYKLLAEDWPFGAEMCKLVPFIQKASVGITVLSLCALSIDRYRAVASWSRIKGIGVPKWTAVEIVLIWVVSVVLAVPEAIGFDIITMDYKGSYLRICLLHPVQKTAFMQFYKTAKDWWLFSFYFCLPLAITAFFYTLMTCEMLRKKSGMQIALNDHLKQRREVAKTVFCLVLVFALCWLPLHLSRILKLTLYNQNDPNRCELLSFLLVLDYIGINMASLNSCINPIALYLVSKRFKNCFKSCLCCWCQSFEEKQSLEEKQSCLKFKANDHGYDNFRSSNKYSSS
As to the kind of experiment: Binding Test #2: inhibition of 125I-labeled ET-1 binding to ETB receptors (transfected COS7 cell membranes). To be noted: ETB over ETA; preferably at least 3-fold greater affinity, more preferably 5-fold or more. From the text: Compounds that are potential endothelin antagonists are identified by testing their ability to compete with ^125I-labeled ET-1 for binding to human ETA receptors or ETB receptors present on isolated cell membranes. The effectiveness of the test compound as an antagonist or agonist of the biological tissue response of endothelin can also be assessed by measuring the effect on endothelin induced contraction of isolated rat thoracic aortic rings. The ability of the compounds to act as antagonists or agonists for ETB receptors can be assess by testing the ability of the compounds are to inhibit endothelin-1 induced prostacyclin release from cultured bovine aortic endothelial cells.
B. Endothelin Binding Inhibition—Binding Test #2: Inhibition of Binding to ETB Receptors
COS7 cells were transfected with DNA encoding the ETB receptor, The resulting cells, which express the human ETB receptor, were grown to confluence in T-150 flasks. Membrane was prepared as described above. The binding assay was performed as described above using the membrane preparation diluted with binding buffer to a concentration of 1 μg/50 μl.
Briefly, the COS7 cells, described above, that had been transfected with DNA encoding the ETB receptor and express the human ETB receptor on their surfaces were grown to confluence in T-175 flasks. Cells from multiple flasks were collected by scraping, pooled and centrifuged for 10 min at 190×g. The cells were resuspended in phosphate buffered saline (PBS) containing 10 mM EDTA using a Tenbroeck homogenizer. The suspension was centrifuged at 4° C. 57,800×g for 15 min, the pellet was resuspended in 5 ml of buffer A (5 mM HEPES buffer, pH 7.4 containing aprotinin (100 KIU/ml)) and then frozen and thawed once. Five ml of Buffer B (5 mM HEPES Buffer, pH 7.4 containing 10 mM MnCl2 and 0.001% deoxyribonuclease Type 1) was added, the suspension mixed by inversion and then incubated at 37° C. for 30 minutes. The mixture was centrifuged at 57,800×g as described above, the pellet washed twice with buffer A and then resuspended in buffer C (30 mM HEPES buffer, pH 7.4 containing aprotinin (100 KIU/ml) to give a final protein concentration of 2 mg/ml.
The binding assay was performed as described above using the membrane preparation diluted to give 1 μg/50 μl of binding buffer.

The target in data set [2] is ETA receptor. Conditions: read-out: IC50, inhibition of 125I-labelled endothelin-1 binding, cited from earlier work.
The target of data set [3] is ETB receptors. To be noted: tissues in which ETB receptors predominate; read-out: fails to inhibit binding to receptors at concentrations up to; cited from earlier work.
Data set [4] relates to non-cardiovascular tissues, such as kidney, adrenal gland, and cerebellum (ETB receptors predominate). To be noted: cited from earlier work.
Data set [5] concerns cardiovascular tissues (ETA receptors predominate). Conditions: cited from earlier work.
In data set [6] the test system is isolated vascular strips. To be noted: read-out: EC50, contractile agent; cited from earlier work.

On to `Cc1ccc(Oc2cccc(Oc3ccc(C)cc3)c2C(=O)O)cc1` [Example 8, 2,6-bis-(4-methylphenoxy)benzoic acid], for which the melting point (as a rule, the temperature of the solid-liquid transition) is 205 to 206 °C. Further, the “ETB selective (interact with greater affinity with one receptor sub-type than with the other)” value in data set [1] is recorded as “ETB selective”.

As for “cyclo(D-Glu-L-Ala-allo-D-Ile-L-Leu-D-Trp) [BE-18257B]”, the IC50 in data set [2] (aortic smooth muscle) was 1400 nM; in data set [2] (cultured aortic smooth muscle cells), 500 nM; in data set [2] (ventricle membranes) it was 800 nM; in data set [3], over 100000 nM.

Take “(Thr^2,Phe^4,Thr^5,Tyr^6,Lys^7,Tyr^14) endothelin-1 [endothelin-3]”: the “extent of inhibition of 125I-labelled endothelin-1 binding” value in data set [4] is on record as “to the same extent”.

Consider “endothelin-1: endothelium-derived potent twenty-one amino acid peptide vasoconstrictor, one of three endothelin isopeptides”, for which, in data set [5], the “potency of inhibition of 125I-labelled endothelin-1 binding relative to endothelin-3” value is recorded as “forty to seven hundred times more potently”. In addition, the “extent of inhibition of 125I-labelled endothelin-1 binding” value in data set [4] was “to the same extent”. For the same molecule, the EC50 (usually the midpoint of the concentration-response curve) in data set [6] was 0.4 nM.
